One data set deals with H295R cells. The experiment in a line: Testosterone production in H295R cell conditioned media (ELISA). The data set is classed as cell-based, human. To be noted: 24 hours. Here is the method:
H295R cells are subcultured in T75 flasks for 24 hours. Cells are then treated for 24 hours with serum free basal media as a control or doxercalciferol at 1 nM, 10 nM, or 100 nM diluted in basal media (serum-free) at a 1:1 ratio. After the incubation period, cells are imaged and analyzed for morphology and cell count. Cells are then collected for analysis of steroidogenesis-related gene expression. Cell culture media are collected and used for testosterone quantification using ELISA based Testosterone Parameter Assay Kit (R&D system) per the manufacturer's protocol. The testosterone level is quantified using a multimode microplate reader system, Varioskan LUX Multimode Microplate Reader (Thermo Fisher).
On the technique in general: In an ELISA, binding on a coated surface is turned into a signal by an enzyme label.

The nature of data set [1]: Body weight in letrozole induced PCOS mouse model. The data set is classed as in vivo, C57BL/6 mice. To be noted: 300 ng/kg i.p. 3 times per week for 6 weeks. Here is the method: 2.5-week-old female C57BL/6 mice (Charles River, MA, USA) are housed in a vivarium for 1 week under specific pathogen-free conditions. The animal experiment protocol for this study is approved, and all animal experiments are performed in compliance with policies and guidelines for use of laboratory animals. At 3.5 weeks of age, mice (n=11/group) are subcutaneously implanted with a placebo or 5 mg letrozole (LTZ) pellet (Innovative Research of America, Sarasota, FL, USA), which provides a constant release of LTZ (50 μg/day). Body weight is monitored weekly before and post-implantation. Body weight and insulin resistance (measured by glucose tolerance test, GTT) are used to monitor development of PCOS characteristics. Five weeks after placebo or LTZ pellet implantation, mice undergo intraperitoneal injection of doxercalciferol (300 ng/kg) or saline 3 times per week for 6 weeks. Six weeks after doxercalciferol treatment, the mice are anesthetized and ovary, uterus, gonadal white fat, kidney, and liver tissue are collected. Each of these tissues are fixed in 4% paraformaldehyde for further histological analysis.

Data set [2] in a line: Glucose tolerance test in PDX UF mice. The data set is classed as in vivo, NOD/SCID mice. The following applies: 6 weeks after treatment, vs control. On the procedure:
(§1) After xenograft mice undergo intraperitoneal injection of doxercalciferol (300 ng/kg, 3 times per week) or saline for 6 weeks. Body weight is monitored weekly during doxercalciferol treatment. Six weeks after doxercalciferol treatment insulin resistance is assessed using GTT and then mice are anesthetized and blood is collected to measure liver enzyme and AMH levels, ovary tissue is removed for histological analysis, total RNA is extracted for sequencing, and tumor size is measured with a digital caliper.
Glucose tolerance testing is performed on PDX UF mice 6 weeks after doxercalciferol treatment. Mice are tested either without fasting or after fasting for 16 h (5 p.m. to 9 a.m.), with free access to drinking water, after which they receive an intra-peritoneal (i.p.) injection of D-glucose (2.0 g/kg body weight). Blood glucose level is measured at 0, 15, 30, 60, 90, and 120 min following glucose injection using a Bayer glucose monitor (Roche Diagnostics Corp, IN, USA).

Data set [3] can be described thus: Serum measurements in PDX UF mice (liver enzymes, calcium, AMH). The data set is classed as in vivo, NOD/SCID mice. On the procedure: as §1
Blood is collected from all groups by cardiac exsanguination under isoflurane anesthesia: serum is separated and stored at −80° C. Serum levels are measured for AMH, ALT, and total bilirubin.

Here are results for one molecule from patent US20240293337A1, “USE OF DOXERCALCIFEROL TO TREAT AND/OR PREVENT UTERINE FIBROIDS OR POLYCYSTIC OVARY SYNDROME” (priority 2023, published 2024).

Each structure is given as a SMILES string.

Regarding `C=C1/C(=C\C=C2/CCC[C@]3(C)[C@@H]([C@H](C)/C=C/[C@H](C)C(C)C)CC[C@@H]23)C[C@@H](O)C[C@@H]1O` [doxercalciferol], the Testosterone production result in the data set with H295R cells (1 nM) is “significantly decreased”. The Testosterone production result in the data set on H295R cells (10 nM) was “not significantly changed”. The Testosterone production result in the data set with H295R cells (100 nM) was “significantly decreased”. Further, in data set [1], the “mouse body weight after treatment, vs control mice” value is given as “no significant weight difference”; the “mouse body weight after treatment, vs untreated PCOS mice” value is “PCOS mice weigh significantly more than both control and doxercalciferol treated PCOS mice”. In addition, the “mouse body weight during treatment” value in data set [1] (PCOS mice) is “lowers PCOS mouse weight”. In addition, in data set [2] (fasting 16 h), the fasting glucose levels entry is recorded as “tends to lower”. The glucose levels result in data set [2] (without fasting) is “tends to lower”. Also, the “calcium levels vs reference range for NOD CB17-Prkdc^scid/NcrCrl mice” value in data set [3] is “overlap with the reference range”. The “calcium level, Mean” value in data set [3] (N 4) stood at 11.93. In addition, in data set [3] (vs control), the ALT level entry is “no significant effect”, the AMH serum levels entry was “no significant effect”, the AST level result is “no significant effect” and the total bilirubin level entry is “no significant effect”.
